# Assay results reported in ChEMBL document CHEMBL5230123, “A comprehensive review of monoamine oxidase inhibitors as Anti-Alzheimer's disease agents: A review” (Eur J Med Chem, 2020).
# Assays:
# [1] = biological target: T1, Amine oxidase [flavin-containing] A (Homo sapiens, UniProt P21397); experiment: Inhibition of human MAO-A assessed as inhibition constant using kynuramine as substrate
# T1 sequence (P21397 whole entry): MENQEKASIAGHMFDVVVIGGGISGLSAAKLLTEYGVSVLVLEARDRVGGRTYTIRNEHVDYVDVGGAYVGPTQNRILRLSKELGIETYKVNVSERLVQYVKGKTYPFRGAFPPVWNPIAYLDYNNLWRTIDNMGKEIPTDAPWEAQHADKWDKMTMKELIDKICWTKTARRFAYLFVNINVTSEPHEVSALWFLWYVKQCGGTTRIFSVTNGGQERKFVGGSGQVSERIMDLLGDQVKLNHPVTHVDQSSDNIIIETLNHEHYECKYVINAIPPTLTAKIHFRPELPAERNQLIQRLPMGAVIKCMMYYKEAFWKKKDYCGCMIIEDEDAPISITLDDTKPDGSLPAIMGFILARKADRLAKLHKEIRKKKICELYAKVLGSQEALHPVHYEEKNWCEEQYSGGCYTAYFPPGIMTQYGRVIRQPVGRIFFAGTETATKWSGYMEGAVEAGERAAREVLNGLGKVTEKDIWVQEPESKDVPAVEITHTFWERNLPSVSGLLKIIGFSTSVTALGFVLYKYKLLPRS
# [2] = biological target: T2, Amine oxidase [flavin-containing] B (Homo sapiens, UniProt P27338); experiment: Inhibition of human MAO-B using benzylamine as substrate
# T2 sequence (P27338 whole entry): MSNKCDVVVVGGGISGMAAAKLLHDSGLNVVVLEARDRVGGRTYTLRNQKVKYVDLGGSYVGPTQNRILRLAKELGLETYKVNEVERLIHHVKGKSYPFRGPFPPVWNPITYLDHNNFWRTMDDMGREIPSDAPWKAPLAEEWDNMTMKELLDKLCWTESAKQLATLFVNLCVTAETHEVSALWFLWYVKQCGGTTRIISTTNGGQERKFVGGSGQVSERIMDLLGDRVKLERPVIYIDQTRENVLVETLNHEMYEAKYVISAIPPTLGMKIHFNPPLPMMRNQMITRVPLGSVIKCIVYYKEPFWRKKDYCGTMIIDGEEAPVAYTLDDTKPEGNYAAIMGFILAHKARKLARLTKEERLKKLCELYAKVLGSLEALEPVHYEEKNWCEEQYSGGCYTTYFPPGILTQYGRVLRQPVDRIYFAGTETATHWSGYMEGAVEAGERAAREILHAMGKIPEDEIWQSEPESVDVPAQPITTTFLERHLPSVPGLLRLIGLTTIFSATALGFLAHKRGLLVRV
# [3] = biological target: T1, Amine oxidase [flavin-containing] A; experiment: Mixed type inhibition of human MAO-A assessed as inhibition constant by Lineweaver-Burk plot analysis
# [4] = biological target: T2, Amine oxidase [flavin-containing] B; experiment: Inhibition of human MAO-B
# Acetylcholinesterase = Acetylcholinesterase (Electrophorus electricus, UniProt O42275); experiment: Inhibition of electric eel AChE using acetylthiocholine iodide as substrate incubated for 15 mins by Ellman's method
# Sequence of Acetylcholinesterase (O42275 whole entry): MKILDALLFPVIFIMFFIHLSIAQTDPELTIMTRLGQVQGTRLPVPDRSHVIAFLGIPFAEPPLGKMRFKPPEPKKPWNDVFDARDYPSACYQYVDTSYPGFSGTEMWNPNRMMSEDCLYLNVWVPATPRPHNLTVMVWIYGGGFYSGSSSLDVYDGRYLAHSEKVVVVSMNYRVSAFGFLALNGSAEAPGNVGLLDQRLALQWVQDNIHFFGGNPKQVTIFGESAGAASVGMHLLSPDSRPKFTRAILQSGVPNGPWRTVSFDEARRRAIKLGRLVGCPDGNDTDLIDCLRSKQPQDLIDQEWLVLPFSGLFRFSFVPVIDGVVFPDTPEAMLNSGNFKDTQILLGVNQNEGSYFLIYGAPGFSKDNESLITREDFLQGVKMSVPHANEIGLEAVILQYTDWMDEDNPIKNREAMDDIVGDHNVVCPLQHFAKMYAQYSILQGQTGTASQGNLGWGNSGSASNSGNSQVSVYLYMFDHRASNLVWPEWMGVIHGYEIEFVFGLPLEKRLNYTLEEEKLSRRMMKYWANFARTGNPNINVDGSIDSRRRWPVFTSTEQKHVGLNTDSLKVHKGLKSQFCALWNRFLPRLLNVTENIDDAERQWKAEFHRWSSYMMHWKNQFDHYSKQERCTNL
# [5] = biological target: T2, Amine oxidase [flavin-containing] B; experiment: Inhibition of human MAO-B using tyramine hydrochloride as substrate preincubated for 30 mins followed by substrate addition and measured after 30 mins by fluorescence assay
# [6] = biological target: T2, Amine oxidase [flavin-containing] B; experiment: Inhibition of human MAO-B assessed as inhibition constant using benzylamine as substrate
structure (smiles),measurement,setting,value
COc1cc(/C=C/C(=O)CC(=O)/C=C/c2ccc(O)cc2)ccc1O,Ki,[1],910 nM
same,IC50,[2],2450 nM
COc1cc(O)c2c(=O)oc3cc(O)cc(C)c3c2c1,Ki,[3],340 nM
same,IC50,[4],> 80000 nM
C#CCN1C(=O)/C(=N/NC(=O)c2ccc3c(c2)OCO3)c2ccccc21,IC50,Acetylcholinesterase,52 nM
O=C(CSC(=S)N1CCN(c2ccc([N+](=O)[O-])cc2)CC1)N(Cc1ccc([N+](=O)[O-])cc1)c1ccc(F)cc1,IC50,[5],97 nM
O=C(/C=C/c1ccc(O)cc1)CC(=O)/C=C/c1ccc(O)cc1 [BISDEMETHOXYCURCUMIN],Ki,[6],800 nM
same,IC50,[2],2590 nM
